{"source": "patent US9149618B2", "about": "“Built-in non-verbal instructional device integratable to applicators” (NANOMED SKINCARE, INC., priority 2010, dated 2015)", "key": {"[1]": {"test": "In vitro permeation study, Franz-type diffusion cells, rat skin", "type": "in vitro ADME", "description": "Male Sprague-Dawley rats (220-250 g) were provided by Beijing Weitong Lihua Experimental Animals Ltd. Co. (Beijing China). Forty-eight hours before the test, rats were anesthetized by ether, and then the abdominal hair of each rat was shaved with an electric hair clipper. At the beginning of in vitro studies, animals were euthanized using carbon dioxide and full-thickness skins were removed. All research protocols adhered to the Guide for the Care and Use of Laboratory Animals (1996).\n(§1) The method of the percutaneous absorption study adheres to the Test Guideline 428 of Organization for Economic Cooperation and Development (2004). The experiment was performed with a system employing Franz-type glass diffusion cells. The temperature in the receptor chamber was maintained at physiological temperature of 37.0±0.1° C. with an external, constant temperature circulating water bath.\n(§2) Skin samples were treated using FMA delivery system. The insertion force was provided by the applicator. The skins without FMA treatment were used as control. The skin was mounted on a receptor chamber (2.5 ml) with the stratum corneum side facing upward into the donor chamber with effective permeation area of 0.66 cm^2. The receptor and donor chambers were filled with PBS solution, and the receptor fluid was continuously stirred with a magnetic bar at 280 rpm to maintain homogeneity. After 1 h equilibration, the solution in the receptor chamber was replaced with fresh PBS, and 300 μl of LC solution or 300 mg of LC gel was applied on the skin in the donor chamber, which was then covered with a parafilm to avoid any evaporation process. The samples of receptor cell were withdrawn through at predetermined time intervals and the receptor phase was immediately refreshed by equal volume of PBS buffer to keep a constant volume. The samples were analyzed by HPLC/UV. The results were expressed as the mean±S.D. (n=3-4 independent samples).\nThe quantitative determination of LC was performed by HPLC using methanol-190 mM KH2PO4 water (87:13) as mobile phase at a flow rate of 0.6 ml/min, by LC-2010A (Shimadzu, Japan). The injection volume was 20 μl. The analysis was performed in a YMC-Pack ODS-A C18 column with dimensions of 250 mm×4.6 mm i.d., 5 μm particle size (YMC Inc., USA). The column eluant was monitored at 225 nm. The detection limit is 20 μg ml^−1. The inter- and intra-day variability was less than 5%.\n(§3) The cumulative amount of drug permeated per unit area versus time was plotted. The permeation rates of LC were calculated from the slope of linear portion of the plots. Data analysis was carried out with Microsoft Excel, Version 2000. Results were presented as the mean±S.D. (n=3-4 independent samples). Statistically significant differences were determined using the analysis of variance (ANOVA) with P<0.05 as a minimal level of significance."}, "[2]": {"test": "In vivo permeation study: pharmacokinetics and absolute bioavailability of LC in rats", "settings": "rat; for bioavailability / AUC(0-inf) / Cmax / Tmax: male, Sprague-Dawley, plasma; for AUC(0-inf): AUC0-∞; for Plasma concentration: intravenous 200 mg/rat", "excerpt": "Male Sprague-Dawley rats (250 g±10 g) were equally divided into four groups (3 for each): group A, B, C and D. Before administration, all rats allowed to acclimatize for one week. One day before administration, rats were fasted overnight but allowed access to water. The hair of abdominal skin was carefully shaved by electric clippers for Group A and B. The rats in group A were pretreated by FMA with an area of 2 cm^2, the group B was untreated as a control. Then hydrogel patch containing LC 750 mg was applied to each rat by an adhesive housing for 6 h. Group C and Group D were control groups of oral and intravenous injection administration of 1 ml LC solution (200 mg/ml). A volume of 0.5 ml blood samples were taken before administration and at predetermined time intervals after LC administration. Plasma samples were immediately separated by centrifugation at 4000×g for 7 mins, and stored at −80° C. until assay.\nPretreatment method of samples: 120 μl of plasma was deproteinized with 600 μl of 0.6 M perchloric acid. The mixture was shaken for 30 s and allowed to stand in an ice bath for about 15 mins. After centrifuged at 4000×g for 7 mins, 500 μl of supernatant was transferred to a new tube in which 300 μl of 0.5 M K2CO3 was added, the mixture was shaken for 30 s and incubated in an ice-bath for 15 mins. Precipitate of KClO4 was removed by centrifugation at 4000×g for 7 mins, and 200 μl of the supernatant with free LC was separated for the assay.\nAssays: The concentration of free LC in serum was determined by enzymatic assay kit with a limitation detection of 0.8 μg/ml.\nMaximum plasma concentration (Cmax) and the time to reach this peak (Tmax) were directly identified from the pharmacokinetic curves (LC plasma concentration versus time). Area under the plasma concentration-time curve (AUC0→∞) was calculated by using the trapezoidal rule. Absolute bioavailability (A.B.) of LC after oral and FMA administration comparing with intravenous administration was calculated using the following equation:"}, "[3]": {"test": "In vitro permeation study, Franz-type diffusion cells, human cadaver skin", "type": "in vitro ADME", "experimental": "Samples of full-thickness dermatomed human cadaver skins (≈800 μm) were obtained from the Burns Institute, 304th Clinical Department, The General Hospital of PLA, Trauma Center of Postgraduate Medical College and were free from overt pathology. The skin samples were kept frozen in liquid nitrogen and used within 3 months.\nas §1\nas §2, with “The samples of receptor cell were withdrawn through at predetermined time intervals and the receptor phase was immediately refreshed by equal volume of PBS buffer to keep a constant volume.” left out\nThe quantitative determination of LC was performed by HPLC using methanol-190 mM KH2PO4 water (87:13) as mobile phase at a flow rate of 0.6 ml/min, by LC-2010A (Shimadzu, Japan). […] The column eluant was monitored at 225 nm. […]\nas §3, with “Data analysis was carried out with Microsoft Excel, Version 2000. Results were presented as the mean±S.D. (n=3-4 independent samples).” left out"}, "[4]": {"test": "In vitro permeation study, Franz-type diffusion cells, porcine ear skin", "settings": "for Permeation rates of LC / Cumulative amount of LC: porcine ear skin, FMA; for Cumulative amount of LC: 8 h"}, "[5]": {"test": "Skin penetration of active agent on applicator pre-treated skin"}, "[6]": {"settings": "With FMA, CP980 gel patch 750 mg/rat, 6 h application"}}, "note": "Where two headings read alike, the source gives them in different places."}
{"smiles": "C[N+](C)(C)C[C@H](O)CC(=O)[O-]", "note": "[LC, (3R)-3-hydroxy-4-trimethylazaniumylbutanoate]", "values": [{"measurement": "Permeation rate through rat skin relative to human skin", "setting": "[1]; after FMA-puncture", "value": 3.7, "unit": "times"}, {"measurement": "Permeation rate through rat skin relative to human skin", "setting": "[1]; passive diffusion", "value": "about 13.8 times"}, {"measurement": "ER (enhancement ratio, FMA permeation rates/passive permeation rates)", "setting": "[1]; rat skin", "value": 16}, {"measurement": "Permeation rates, FMA", "setting": "[1]; rat skin full thickness, FMA pretreatment, donor 640 mg/mL", "value": "40.16 ± 3.97", "unit": "mg/cm^2/h"}, {"measurement": "Permeation rates, Passive Diffusion", "setting": "[1]; rat skin full thickness, without FMA, donor 640 mg/mL", "value": "2.49 ± 0.40", "unit": "mg/cm^2/h"}, {"measurement": "bioavailability", "setting": "[2]; iv, 200 mg", "value": 100, "unit": "%"}, {"measurement": "AUC(0-inf)", "setting": "[2]; iv, 200 mg, Intravenous 200 mg/rat", "value": 3680, "unit": "µg·h/mL"}, {"measurement": "Cmax", "setting": "[2]; po, 200 mg", "value": "40 ± 11", "unit": "µg/mL"}, {"measurement": "Tmax", "setting": "[2]; po, 200 mg", "value": 2, "unit": "h"}, {"measurement": "bioavailability", "setting": "[2]; po, 200 mg", "value": 8, "unit": "%"}, {"measurement": "AUC(0-inf)", "setting": "[2]; po, 200 mg, Oral 200 mg/rat", "value": 309, "unit": "µg·h/mL"}, {"measurement": "Cmax", "setting": "[2]; topical or ocular, 750 mg", "value": "530 ± 86", "unit": "µg/mL"}, {"measurement": "Tmax", "setting": "[2]; topical or ocular, 750 mg", "value": 4, "unit": "h"}, {"measurement": "bioavailability", "setting": "[2]; topical or ocular, 750 mg", "value": 22, "unit": "%"}, {"measurement": "AUC(0-inf)", "setting": "[2]; topical or ocular, 750 mg, FMA delivery 750 mg/rat", "value": 3020, "unit": "µg·h/mL"}, {"measurement": "Cmax after FMA delivery relative to oral administration", "setting": "[2]; FMA 750 mg/rat vs oral 200 mg/rat", "value": "about 13 fold"}, {"measurement": "AUC0-∞", "setting": "[2]; FMA delivery 750 mg/rat", "value": 3049, "unit": "µg·h/mL"}, {"measurement": "Plasma concentration", "setting": "[2]; at 3 min", "value": "3900 ± 420", "unit": "µg/mL"}, {"measurement": "Plasma concentration", "setting": "[2]; at 2 h", "value": "270 ± 50", "unit": "µg/mL"}, {"measurement": "Apparent dose of LC", "setting": "[6]", "value": 200, "unit": "mg/rat"}, {"measurement": "The residual amount in patch", "setting": "[6]", "value": 550, "unit": "mg/rat"}, {"measurement": "The residual amount in patch", "setting": "Without FMA, CP980 gel patch 750 mg/rat, 6 h application", "value": 764, "unit": "mg/rat"}, {"measurement": "Difference between residual and initial content of patch", "setting": "rat, in vivo", "value": "no significant difference"}, {"measurement": "ER (enhancement ratio, FMA permeation rates/passive permeation rates)", "setting": "[3]; human skin", "value": 59}, {"measurement": "Permeation rates, FMA", "setting": "[3]; human skin dermatomed ≈800 μm, FMA pretreatment, donor 640 mg/mL", "value": "10.65 ± 2.12", "unit": "mg/cm^2/h"}, {"measurement": "Permeation rates, Passive Diffusion", "setting": "[3]; human skin dermatomed ≈800 μm, without FMA, donor 640 mg/mL", "value": "0.18 ± 0.02", "unit": "mg/cm^2/h"}, {"measurement": "Permeation rates, FMA", "setting": "[4]; porcine ear skin dermatomed ≈800 μm, FMA pretreatment, donor 640 mg/mL", "value": "11.08 ± 2.05", "unit": "mg/cm^2/h"}, {"measurement": "Permeation rates, Passive Diffusion", "setting": "[4]; porcine ear skin dermatomed ≈800 μm, without FMA, donor 640 mg/mL", "value": "0.37 ± 0.04", "unit": "mg/cm^2/h"}, {"measurement": "Permeation rates of LC", "setting": "[4]; donor concentration 650 mg/ml", "value": "11.08±2.05", "unit": "mg/cm^2/h"}, {"measurement": "Cumulative amount of LC", "setting": "[4]; donor concentration 650 mg/ml", "value": "93.23±17.76", "unit": "mg/cm^2"}, {"measurement": "Permeation rates of LC", "setting": "[4]; donor concentration 800 mg/ml", "value": "11.80±1.50", "unit": "mg/cm^2/h"}, {"measurement": "Cumulative amount of LC", "setting": "[4]; donor concentration 800 mg/ml", "value": "97.20±12.60", "unit": "mg/cm^2"}, {"measurement": "Skin penetration speed on applicator pre-treated skin", "setting": "[5]", "value": 10, "unit": "times faster"}]}
